The values below come from PubChem BioAssay AID1259407 (Chemical Carcinogenesis Research Information System (CCRIS), 2018).

Calls of active or inactive are those of the source. No rule for the calls is given here.

In the data set the test system is CCRIS mutagenicity, Ames/micronucleus/aberration tests. Nature of the data set: CCRIS mutagenicity studies.
Where [1] appears, read: Test System: AMES SALMONELLA TYPHIMURIUM, Strain/Indicator: TA100, Metabolic Activation: NONE, Method: STANDARD PLATE.
[2] abbreviates: Test System: AMES SALMONELLA TYPHIMURIUM, Strain/Indicator: TA98, Metabolic Activation: NONE, Method: PREINCUBATION
The mark [3] stands for this setting: Test System: AMES SALMONELLA TYPHIMURIUM, Strain/Indicator: TA98, Metabolic Activation: NONE, Method: STANDARD PLATE.
Setting [4] is: Test System: AMES SALMONELLA TYPHIMURIUM, Strain/Indicator: TA98, Metabolic Activation: RAT, LIVER, S-9, AROCLOR 1254, Method: PREINCUBATION
Where [5] appears, read: Test System: AMES SALMONELLA TYPHIMURIUM, Strain/Indicator: TA1535, Metabolic Activation: NONE, Method: STANDARD PLATE.
[6] abbreviates: Test System: AMES SALMONELLA TYPHIMURIUM, Strain/Indicator: TA1537, Metabolic Activation: NONE, Method: STANDARD PLATE.

On to `Nc1cc2cccc3ccc4cccc1c4c32`, for which the mutagenic call runs as follows: (Test System: AMES SALMONELLA TYPHIMURIUM, Strain/Indicator: TA98, Metabolic Activation: RAT, LIVER, S-9, AROCLOR 1254 (2 OR 4%), Method: STANDARD PLATE) “active; positive”; (Test System: AMES SALMONELLA TYPHIMURIUM, Strain/Indicator: TA100, Metabolic Activation: RAT, LIVER, S-9, AROCLOR 1254 (2%), Method: STANDARD PLATE) “active; positive”; (Test System: AMES SALMONELLA TYPHIMURIUM, Strain/Indicator: TA1535, Metabolic Activation: RAT, LIVER, S-9, AROCLOR 1254 (2%), Method: STANDARD PLATE) “inactive; negative”; (Test System: AMES SALMONELLA TYPHIMURIUM, Strain/Indicator: TA1537, Metabolic Activation: RAT, LIVER, S-9, AROCLOR 1254 (2%), Method: STANDARD PLATE) “active; positive”.

For the compound `Cc1ccc(C(=O)ON(OCc2ccccc2)C(=O)c2ccccc2)cc1`, the mutagenic call is “active; positive” under setting [1] and “active; positive” (Test System: AMES SALMONELLA TYPHIMURIUM, Strain/Indicator: TA100, Metabolic Activation: RAT, S-9, AROCLOR, Method: STANDARD PLATE).

For `O=[N+]([O-])c1cc2ccccc2c2ccccc12`, the mutagenic call (Test System: AMES SALMONELLA TYPHIMURIUM, Strain/Indicator: TA98(1,8-DNP6), Metabolic Activation: NONE, Method: STANDARD PLATE) was “active; positive”; the mutagenic call (Test System: AMES SALMONELLA TYPHIMURIUM, Strain/Indicator: TA98(NR), Metabolic Activation: NONE, Method: STANDARD PLATE) is “active; positive”; the mutagenic call under setting [2] was “active; positive”; the mutagenic call under setting [3] was “active; positive”; the mutagenic call (Test System: AMES SALMONELLA TYPHIMURIUM, Strain/Indicator: TA98, Metabolic Activation: RAT, LIVER, S-9, PCB (10%), Method: PREINCUBATION) is “inactive; negative”; the mutagenic call under setting [1] is “active; positive”. Besides, the mutagenic call reads like this: (Test System: AMES SALMONELLA TYPHIMURIUM, Strain/Indicator: TA7001, Metabolic Activation: NONE, Method: PREINCUBATION) “active; positive”; (Test System: AMES SALMONELLA TYPHIMURIUM, Strain/Indicator: TA7002, Metabolic Activation: NONE, Method: PREINCUBATION) “active; positive”; (Test System: AMES SALMONELLA TYPHIMURIUM, Strain/Indicator: TA7003, Metabolic Activation: NONE, Method: PREINCUBATION) “inactive; negative”; (Test System: AMES SALMONELLA TYPHIMURIUM, Strain/Indicator: TA7004, Metabolic Activation: NONE, Method: PREINCUBATION) “active; positive”; (Test System: AMES SALMONELLA TYPHIMURIUM, Strain/Indicator: TA7005, Metabolic Activation: NONE, Method: PREINCUBATION) “active; positive”; (Test System: AMES SALMONELLA TYPHIMURIUM, Strain/Indicator: TA7006, Metabolic Activation: NONE, Method: PREINCUBATION) “active; positive”. In addition, the mutagenic call is, setting by setting: (Test System: AMES SALMONELLA TYPHIMURIUM, Strain/Indicator: YG1021, Metabolic Activation: NONE, Method: STANDARD PLATE) “active; positive”; (Test System: AMES SALMONELLA TYPHIMURIUM, Strain/Indicator: YG1024, Metabolic Activation: NONE, Method: STANDARD PLATE) “active; positive”; (Test System: AMES SALMONELLA TYPHIMURIUM, Strain/Indicator: YG1026, Metabolic Activation: NONE, Method: STANDARD PLATE) “active; positive”; (Test System: AMES SALMONELLA TYPHIMURIUM, Strain/Indicator: YG1029, Metabolic Activation: NONE, Method: STANDARD PLATE) “active; positive”.

As to `CN(C)N=Nc1ccccc1`, the mutagenic call is “active; positive” (Test System: AMES SALMONELLA TYPHIMURIUM, Strain/Indicator: G46, Metabolic Activation: NONE, Method: STANDARD PLATE) and “active; positive” (Test System: AMES SALMONELLA TYPHIMURIUM, Strain/Indicator: G46, Metabolic Activation: RAT, LIVER, S-9, PHENOBARBITAL, Method: STANDARD PLATE).

On to `O=[N+]([O-])c1ccc(Nc2ccc(Cl)cc2)cc1`, for which the mutagenic call is “inactive; negative” under setting [2] and “active; positive” under setting [4].

Regarding `CC(=O)Nc1cccc2cccnc12`, the mutagenic call is, setting by setting: under setting [2], “inactive; negative”; (Test System: AMES SALMONELLA TYPHIMURIUM, Strain/Indicator: TA98, Metabolic Activation: RAT, LIVER, S-9, KANECHLOR 500, Method: PREINCUBATION) “inactive; negative”; (Test System: AMES SALMONELLA TYPHIMURIUM, Strain/Indicator: TA100, Metabolic Activation: NONE, Method: PREINCUBATION) “inactive; negative”; (Test System: AMES SALMONELLA TYPHIMURIUM, Strain/Indicator: TA100, Metabolic Activation: RAT, LIVER, S-9, KANECHLOR 500, Method: PREINCUBATION) “active; positive”; (Test System: AMES SALMONELLA TYPHIMURIUM, Strain/Indicator: TA100, Metabolic Activation: RAT, LIVER, S-9, PHENOBARBITAL AND 5,6-BENZOFLAVONE, Method: PREINCUBATION) “active; positive”; (Test System: AMES SALMONELLA TYPHIMURIUM, Strain/Indicator: TA100, Metabolic Activation: S-9, Method: PREINCUBATION) “active; positive”.

Take `CCc1cccc2c3c([nH]c12)C(C)(CC)OCC3` (stereo not given): the mutagenic call runs as follows: under setting [3], “inactive; negative”; (Test System: AMES SALMONELLA TYPHIMURIUM, Strain/Indicator: TA98, Metabolic Activation: RAT, LIVER, S-9, Method: STANDARD PLATE) “inactive; negative”; under setting [1], “inactive; negative”; (Test System: AMES SALMONELLA TYPHIMURIUM, Strain/Indicator: TA100, Metabolic Activation: RAT, LIVER, S-9, Method: STANDARD PLATE) “inactive; negative”; under setting [5], “inactive; negative”; (Test System: AMES SALMONELLA TYPHIMURIUM, Strain/Indicator: TA1535, Metabolic Activation: RAT, LIVER, S-9, Method: STANDARD PLATE) “inactive; negative”. Besides, the mutagenic call by setting is: under setting [6], “inactive; negative”; (Test System: AMES SALMONELLA TYPHIMURIUM, Strain/Indicator: TA1537, Metabolic Activation: RAT, LIVER, S-9, Method: STANDARD PLATE) “inactive; negative”; (Test System: E. COLI, Strain/Indicator: WP2 UVRA, Metabolic Activation: NONE, Method: STANDARD PLATE) “inactive; negative”; (Test System: E. COLI, Strain/Indicator: WP2 UVRA, Metabolic Activation: RAT, LIVER, S-9, Method: STANDARD PLATE) “inactive; negative”.

Take `CC(/C=C(/C#N)c1ccc(F)cc1)C(c1ccccc1)C(C#N)c1ccc(F)cc1` (stereo not given): under setting [1], the mutagenic call was “inactive; negative”.

As for `Nc1ccc(N=Nc2ccc(N)cc2)cc1`, the mutagenic call by setting is: (Test System: AMES SALMONELLA TYPHIMURIUM, Strain/Indicator: TA98, Metabolic Activation: HAMSTER, LIVER, S-9, AROCLOR 1254, Method: STANDARD PLATE) “active; positive”; under setting [3], “inactive; negative”; under setting [4], “active; positive”; (Test System: AMES SALMONELLA TYPHIMURIUM, Strain/Indicator: TA98, Metabolic Activation: RAT, LIVER, S-9, AROCLOR 1254, Method: STANDARD PLATE) “active; positive”; under setting [1], “inactive; negative”; (Test System: AMES SALMONELLA TYPHIMURIUM, Strain/Indicator: TA100, Metabolic Activation: RAT, LIVER, S-9, AROCLOR 1254, Method: STANDARD PLATE) “inactive; negative”. In addition, the mutagenic call is, setting by setting: under setting [5], “inactive; negative”; (Test System: AMES SALMONELLA TYPHIMURIUM, Strain/Indicator: TA1535, Metabolic Activation: RAT, LIVER, S-9, AROCLOR 1254, Method: STANDARD PLATE) “inactive; negative”; under setting [6], “inactive; negative”; (Test System: AMES SALMONELLA TYPHIMURIUM, Strain/Indicator: TA1537, Metabolic Activation: RAT, LIVER, S-9, AROCLOR 1254, Method: STANDARD PLATE) “inactive; negative”; (Test System: AMES SALMONELLA TYPHIMURIUM, Strain/Indicator: TA1538, Metabolic Activation: NONE, Method: STANDARD PLATE) “inactive; negative”; (Test System: AMES SALMONELLA TYPHIMURIUM, Strain/Indicator: TA1538, Metabolic Activation: RAT, LIVER, S-9, AROCLOR 1254, Method: STANDARD PLATE) “active; positive”.
